The nature of series [1]: Cell viability assessment with Resazurin assay. The class given is cell-based. The settings on record: human, hela cells, average over all doses, percent of OptiMEM-only control, read-out: Cell Viability % (Average metabolic rate over all doses, Resazurin). An excerpt:
This protocol is used to determine the metabolic activity of cells as a measure for cell viability after exposure to potentially toxic substances. Resazurin is converted in mitochondria by reduction to resorufin, which has a much higher fluorescence at ~600 nm compared to unconverted resazurin. A lower amount/percentage of conversion is correlated with reduced cellular metabolism and indirectly to cellular death and toxicity. Care must be taken with interpretation of the read-out, as 50% reduction in resazurin conversion may mean 50% reduction of cellular metabolism of 100% alive cells, or 50% of cells dead, and any combination in between.
• 1. Prepare 0.25 mg/ml stock solution resazurin in fresh cell culture medium. Resazurin is auto-reducing over time in solution, especially in medium, and fresh stocks should be prepared every 2-3 days. Stocks should be stored at 4°C and protected from light. For HeLa cells, DMEM/F12 with 10% FCS is used. • 2. Dilute stock solution 10x in fresh cell culture medium to 0.025 mg/ml -> ready for application on cells. For HeLa cells, DMEM/F12 with 10% FCS is used. • 3. Collect 96-well plate and replace cell-culture spent medium with 100 µl per well resazurin solution. Add some resazurin solution for background measurement in wells not containing cells. • 4. Incubate for 50 minutes in incubator at 37°C, 5% CO2, 95% RH. • 5. Transfer resazurin solution to a fresh 96- or 384-well plate. • 6. Measure in plate reader using 540/25 nm (excitation) and 610/40 nm (emission) using standard settings (PTM low/OD-1.0). • 7. Subtract the average background measurement from all samples. Set the average of the negative controls (well receiving OptiMEM only during transfection) to 100% and express all values as percentage of the control activity. Typically, at lower levels of treatment, elevation of metabolic activity is shown, whereas for toxic substances, at toxic concentrations sigmoidal curves can be obtained, with lower activity indicating higher toxicity.
For orientation: Alamar Blue is a resazurin reagent that responds to reducing activity.

Series [2] in a line: Size, PDI and Zeta potential of LNPs by dynamic light scattering. It counts as physicochemical. As to conditions: LNP formulated with tested lipid, diluted in 1x PBS pH 7.4; for Size: DOTAP, DOPE, Resveratrol, DSPE-PEG and mRNA, dialyzed; for Size / PDI: DLS. The procedure: • 1. If needed, prepare stock solutions by solving known amounts of lipid powder into an appropriate solvent. The recommended solvent is ethanol and the recommended concentration is typically in the range 10-50 mM. Higher concentrations are preferred to allow flexibility on mRNA-LNP concentration. • 2. Remove the lipid stock solutions from the -20°C freezer. For long-term storage, -80°C is used. • 3. Check the vials for precipitation, DOPE (CAS# 4004-05-1) (20 mM) and DSPE-PEG (CAS# 474922-26-4) (5mM) may need a 5-30 minute incubation step at 37°C with intermittent vortexing to resuspend all contents. […] As a last resort, lipids may be heated to 50°C to resuspend, time should be kept as short as possible to prevent oxidation or other modifying or degradative processes. • 4. Mix the lipids by vortexing for 2 minutes. • 5. […] Cooling the solution prevent excessive evaporation of ethanol or similar solvents upon opening. • 6. Meanwhile, thaw the RNA samples, including the latest SecNLuc control, by inserting the frozen tube in a room temperature aluminium block. • 7. Prepare for each LNP-formulation with identical mRNA component, an RNA master mix according to Table 1 below in a fresh tube. Use of a master mix allows more precise comparison of lipid formulations relative to each other. Split the master mix over a number of fresh tubes equal to the number of samples + controls. Each tube contains 375 µl of mRNA in 10 mM Citrate pH 4.0. • 8. Prepare for each LNP formulation with identical lipid composition a Lipid master mix according to Table 1 below in a fresh tube, exclude the lipid of interest. Use of a master mix allows more precise comparison of the novel ionizable lipid relative to each other. Split the master mix over a number of fresh tubes equal to the number of samples + controls. Each tube contains 65.5 µl of lipid master mix. • 9. Add the ionizable lipid of interest to the equally divide lipid master mix. Mix well by pipetting up and down. Label the tube according to the ionizable lipid used. • 10. Power on the L1 FM (L1 Formulation Machine uses 2 high-speed syringe pumps to mix lipids in organic solvents with mRNA in acidic aqeuous solution to generate well-defined LNPs. The microfluidic mixing chip involves a dean-type structure performing the high-efficiency mixing at a total flow rate (TFR) of around 12ml/min at a 3:1 mixing ratio) and allow it to do a calibration of motor positions. Table 1: Lipid formulation solution
• 18. Fill a fresh syringe (C) through a blunt 18G stainless steel needle with the previously prepared RNA mixture of step 6. The volume should be approximately 85% of total formulation volume + 25 µl (dead-volume). Make sure to remove all air bubbles by tapping. • 19. Fill a fresh syringe (D) through a blunt 18G stainless steel needle with the Lipid master mix. The volume should be approximately […] of total formulation volume + 25 µl (dead-volume). Again, Make sure to remove all bubbles. • 20. Attach the syringes in the correct orientation, […] • 21. Load the 'Receiving station' with appropriate sized collection containers (2 ml Eppendorf tubes). • 22. Press the microfluidic chip to the back of the machine with your thumb and hold, press the 'Button 1' (40 µg). The L1 FM pushes the total volume from the syringes in a perfect 3:1 (mRNA aqueous: lipid in EtOH) ratio through the microfluidic mixer chip with a total flow-rate of […] (Total flow rate (TFR)). • 23. Remove the sample tube from the 'Receiving station' and label the tube accordingly. • 24. Reset the machine to prepare with the next formulation.
• 25. Transfer the individual formulations to 100 kda MWCO, SpectraPor Biotech dialysis tubing, and close with designated clamps. • 26. Submerge the dialysis bags in beakers filled with 1x Phosphate-buffered saline (PBS buffer, pH 7.4, Gibco cat# 202212-019), stir at 230 RPM at room temperature. • 27. […]

Structures are written as SMILES.

Take `CCCCCCCCCCSC(CCCCCC)C(=O)OCCCCCCN(CCCCO)CCCCCCOC(=O)C(CCCCCC)SCCCCCCCCCC` (centres unmarked) [Example 8, ((4-hydroxybutyl)azanediyl)bis(hexane-6,1-diyl) bis(2-(decylthio)octanoate)]: in series [1], the viability at 24 h turned out to be 104%. Also, in series [2], the Size is 153,5 nm, the Zeta potential is given as -14,32 mV and the PDI is on record as 0,038.
Taken in the same sequence, the figures for `CCCCCCCCC(SCCCCCCC)C(=O)OCCCCCCN(CCCCO)CCCCCCOC(=O)C(CCCCCCCC)SCCCCCCC` (centres unmarked) [Example 6, ((4-hydroxybutyl)azanediyl)bis(hexane-6,1-diyl) bis(2-(heptylthio)decanoate)] were 101%, 126,0 nm, -11,48 mV and 0,013.
Taken in the same sequence, the figures for `CCCCCCCSC(CCCCCC)C(=O)OCCCCCCN(CCCCO)CCCCCCOC(=O)C(CCCCCC)SCCCCCCC` (centres unmarked) [Example 9, ((4-hydroxybutyl)azanediyl)bis(hexane-6,1-diyl) bis(2-(heptylthio)octanoate)] were 106%, 167,3 nm, -13,37 mV and 0,144.
Consider `CCCCCCCCC(CCCCCC)C(=O)OCCCCCCN(CCCCO)CCCCCCOC(=O)C(CCCCCC)CCCCCCCC` (centres unmarked) [ALC-0315 ref., reference compound], for which the viability at 24 h in series [1] was 96%. In series [2], the Size was 131,9 nm, the Zeta potential is reported as -12,32 mV and the PDI is recorded as 0,007.
On the same counts, the results for `CCCCCCCCCCSC(CCCCCCCC)C(=O)OCCCCCCN(CCCCO)CCCCCCOC(=O)C(CCCCCCCC)SCCCCCCCCCC` (centres unmarked) [Example 7, ((4-hydroxybutyl)azanediyl)bis(hexane-6,1-diyl) bis(2-(decylthio)decanoate)] are 106%, 152,7 nm, -15,85 mV and 0,022.
Taken in the same sequence, the figures for `CCCCCCCCCCCCCCSCC(=O)OCCCCCCN(CCCCO)CCCCCCOC(=O)CSCCCCCCCCCCCCCC` [Example 10, ((4-hydroxybutyl)azanediyl)bis(hexane-6,1-diyl) bis(2-(tetradecylthio)acetate)] were 99%, 203,9 nm, -9,983 mV and 0,014.
Taken in the same sequence, the figures for `CCCCCCCCCCSC(CCCC)C(=O)OCCCCCCN(CCCCO)CCCCCCOC(=O)C(CCCC)SCCCCCCCCCC` (centres unmarked) [Example 1, ((4-hydroxybutyl)azanediyl)bis(hexane-6,1-diyl) bis(2-(decylthio)hexanoate)] were 90%, 226,7 nm, -10,74 mV and 0,223.
As to `CCCCCCCCCCSC(CCCC)C(=O)OCCCCCCCCN(CCCCO)CCCCCCCCOC(=O)C(CCCC)SCCCCCCCCCC` (centres unmarked) [Example 3, ((4-hydroxybutyl)azanediyl)bis(octane-8,1-diyl) bis(2-(decylthio)hexanoate)], in series [1], the viability at 24 h was determined as 103%. Also, in series [2], the Size is on record as 185,7 nm, the Zeta potential is reported as -9,667 mV and the PDI is recorded as 0,122.
Taken in the same sequence, the figures for `CCCCCCCCC(SCCCCC)C(=O)OCCCCCCN(CCCCO)CCCCCCOC(=O)C(CCCCCCCC)SCCCCC` (centres unmarked) [Example 2, ((4-hydroxybutyl)azanediyl)bis(hexane-6,1-diyl) bis(2-(pentylthio)decanoate)] were 94%, 188,2 nm, -11,48 mV and 0,136.
On the same counts, the results for `CCCCCCCCCCSC(CCCC)C(=O)OCCCCCCN(CCO)CCCCCCOC(=O)C(CCCC)SCCCCCCCCCC` (centres unmarked) [Example 4, ((2-hydroxyethyl)azanediyl)bis(hexane-6,1-diyl) bis(2-(decylthio)hexanoate)] are 98%, 149,7 nm, -12,66 mV and 0,071.
On the same counts, the results for `CCCCCCCCCCSC(CCCC)C(=O)OCCCCCCN(CCCCCCOC(=O)C(CCCC)SCCCCCCCCCC)CCC1CCCN1C` (centres unmarked) [Example 5, ((2-(1-methylpyrrolidin-2-yl)ethyl)azanediyl)bis(hexane-6,1-diyl) bis(2-(decylthio)hexanoate)] are 97%, 291,8 nm, -9,117 mV and 0,169.

The viability is a read-out of living cells in per cent, often relative to untreated cells.

The record behind these values is patent EP4559898A1, “NOVEL IONIZABLE CATIONIC LIPIDS CONTAINING THIOETHER LINKAGE” (AldexChem Kft., priority 2023, dated 2025).
